Experiments:
mushroom tyrosinase = test: Activity assay on the action of mushroom tyrosinase in vitro (L-Dopa substrate, melanin read at 492 nm); assay type: biochemical; conditions: melanin formed normalized to control sample (100), 10 min at 37° C.
Procedure: The assay is performed in 96 well plates and the samples are performed in triplicate. The control sample contains 80 μL of buffer (150 mM HEPES), 10 μL of mushroom tyrosinase of 10 μg/μL and 10 μL of 10 mM L-Dopa substrate. […] The samples thus prepared are incubated at 37° C. for 10 minutes. Then the plate containing the samples is cooled for 5 minutes on ice to stop the enzymatic reaction. To quantify the melanin produced it is measured in the plate reader at a length of 492 nm.

[1] = target: T1, endogenous tyrosinase extracted from human melanocytes (Homo sapiens, UniProt P14679); test: Activity assay on endogenous tyrosinase extracted from human melanocytes (L-Dopa substrate, absorbance 475 nm); assay type: biochemical; conditions: 1 mM compound; 30 min incubation with enzyme; one hour after adding L-Dopa; relative to control (100)
T1 construct: The endogenous tyrosine of the human melanocytes seeded at a confluence of 95% is extracted; endogenous in cells; host or cells: human melanocytes (cultured; extract used)
T1 sequence (P14679 19-529): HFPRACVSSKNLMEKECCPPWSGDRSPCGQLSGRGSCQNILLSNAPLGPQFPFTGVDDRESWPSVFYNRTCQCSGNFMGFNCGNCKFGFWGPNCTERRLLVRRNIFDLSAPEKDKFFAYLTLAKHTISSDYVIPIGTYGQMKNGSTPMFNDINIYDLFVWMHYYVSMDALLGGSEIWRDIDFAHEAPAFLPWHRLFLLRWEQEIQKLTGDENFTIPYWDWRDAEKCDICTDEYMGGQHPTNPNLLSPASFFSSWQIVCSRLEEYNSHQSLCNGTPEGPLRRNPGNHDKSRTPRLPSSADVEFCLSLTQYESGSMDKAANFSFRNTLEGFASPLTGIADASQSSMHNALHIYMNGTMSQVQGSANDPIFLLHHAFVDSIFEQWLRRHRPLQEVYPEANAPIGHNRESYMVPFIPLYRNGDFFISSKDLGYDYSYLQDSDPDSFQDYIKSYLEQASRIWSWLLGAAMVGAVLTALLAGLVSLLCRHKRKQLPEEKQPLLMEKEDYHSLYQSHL
Procedure: The human melanocytes are cultured in DMEM medium supplemented with 10% FBS, 1% penicillin/streptomycin and 100 nM PMA. […] The endogenous […] of the human melanocytes seeded at a confluence of 95% is extracted. The assay is performed after extracting and quantifying the enzymatic content. […] To check the enzymatic activity after the treatment, the synthetic L-Dopa (10 mM) substrate is added, measuring absorbance at a wavelength of 475 nm one hour after having added L-Dopa. This measurement allows evaluating the melanin content produced.

human melanocytes = test: Depigmenting efficacy in human melanocyte cultures (microscopy count of melanin-containing cells); assay type: cell-based; conditions: 0.1 mM compound, 5 days, fresh medium daily; normalized to control sample (0)
Procedure: The melanin content was is seen directly by means of microscopy using a 40 magnification lens. The depigmenting efficacy was is determined by counting the number of cells containing melanin and the total number of cells, and the obtained results were are normalized in relation to the whitening efficacy of a control sample.

human keratinocytes = test: Photoprotecting efficacy in human keratinocyte cultures (solar simulation irradiation, Neutral Red viability); assay type: cell-based; conditions: 150 μg/mL
Procedure: The human keratinocytes were maintained in culture for 24 hours in 96 well plates to form monolayers and the cells were pre-incubated in the dark with 150 μg/mL of 7-methoxy-6-palmitoyl-2,2-dimethylchromane or saline phosphate buffer (control) for one hour at 37° C. and humidified air with 5% CO2. The cells were then irradiated with a solar simulation lamp with an energy of 37 J/cm^2 at room temperature for 150 minutes. A control plate was maintained in the dark for the same time at room temperature. The medium of the cells was replaced after the irradiation period with fresh medium and the cells were incubated for 24 additional hours. The cell viability was determined by means of the Neutral Red dye, measuring the optical density at 540 nm in a spectrophotometer.
The photoprotecting efficacy was determined by comparing the viability obtained in the cells treated with 7-methoxy-6-palmitoyl-2,2-dimethylchromane in relation to the response of the irradiated and non-irradiated control cells.

Compound	% MELANIN (mushroom tyrosinase; 1 mM compound) [%]	% MELANIN [1] [%]	% DEPIGMENTING EFFICACY (human melanocytes) [%]	PHOTOPROTECTTNG EFFICACY (human keratinocytes; viability of treated cells compared with irradiated and non-irradiated control cells) [%]	viability at 150 µg/mL (human keratinocytes; Homo sapiens, Keratinocyte, light or radiation study, 1 h pre-incubation, irradiated 37 J/cm^2 for 150 min, 24 h later, non-irradiated control 100%, irradiated control 13.8%, read-out: CELL VIABILITY) [%]	% MELANIN (mushroom tyrosinase; 0.1 mM compound) [%]
CCCCCCCCCCCCCCCC(=O)c1cc2c(cc1OC)OC(C)(C)CC2 [7-methoxy-6-palmitoyl-2,2-dimethylchromane]	63.0	57.0	45.9	254.9	49.1	
O=c1cc(CO)occ1O [Kojic acid, reference compound]			30.2			44.5
COc1cc2c(cc1O)CCC(C)(C)O2 [Lipochroman-6, 6-hydroxy-7-methoxy-2,2-dimethylchromane, reference compound]	96.6	79.8				
